Source: US10500158B2, “Cationic lipid” (Kyowa Hakko Kirin Co., Ltd., priority 2014, dated 2019)

Experiments:
[1] = Average particle size of the preparations, measured with a particle size measurement apparatus; assay type: physicochemical; conditions: preparations of Examples 21 and 22 (composition containing the compound and f7 siRNA-1)
Source text: Each sample was weighed to be compound 1/PEG-DMPE Na (manufactured by NOF Corp.)=57.3/5.52 mmol/L, and suspended in an aqueous solution containing hydrochloric acid and ethanol. A homogenous suspension was obtained by repeating stirring with a vortex stirring mixer and heating. This suspension was passed through a 0.05-μm polycarbonate membrane filter at room temperature to obtain a dispersion of compound 1/PEG-DMPE Na particles (liposomes). The average particle size of the obtained liposomes was measured with a particle size measurement apparatus to confirm that the average particle size fell within the range of 30 nm to 100 nm. The obtained liposome dispersion and the f7 siRNA-1 solution were mixed at a ratio of liposome dispersion:f7 siRNA-1 solution=3:1. A 3-fold amount of distilled water was further added thereto and mixed to prepare a compound 1/PEG-DMPE Na/f7 siRNA-1 complex dispersion.
The average particle sizes of the preparations (compositions) obtained in Examples 21 and 22 were measured using a particle size measurement apparatus.
The average particle sizes of the preparations (compositions) obtained in Example 23 and Comparative Example 1 were measured using a particle size measurement apparatus.

factor VII gene = experiment: Test Example 1: in vivo drug efficacy evaluation, factor VII protein concentration in plasma after i.v. administration of f7 siRNA-1 preparations; design: species or system Mice (Balb/c); conditions: mice, intravenous, 0.03 and/or 0.3 mg/kg siRNA (f7 siRNA-1), 48 hours after administration; FIGS. 1 and 2
Experimental: The preparations (compositions containing compounds 1, 2, and 4 to 7, respectively, and f7 siRNA-1) obtained in Examples 21 and 22 were each subjected to an in vivo drug efficacy evaluation test by a method given below. Each preparation was used after being diluted with physiological saline according to the test.
Mice (Balb/c, obtained from CLEA Japan, Inc.) were acclimatized and raised. Then, each preparation was intravenously administered at 0.03 and/or 0.3 mg/kg in terms of the siRNA concentration to the mice. 48 hours after the administration, blood was collected, and the collected blood was centrifuged at 8000 rpm at 4° C. for 8 minutes using a high-speed refrigerated microcentrifuge (TOMY MX305; manufactured by Tomy Seiko Co., Ltd.). Absorbance in standard solutions and the plasma samples was measured in ARVO (405 nm) using BIOPHEN VII kit (manufactured by ANIARA, cat#: A221304) according to the method described in the instruction manual of the product. A calibration curve was prepared from the obtained absorbance, and the factor VII protein concentration in plasma was calculated. n=3 for each group.

Compound	Particle size of obtained preparation (nm) [1]	expression of the factor VII gene (factor VII protein concentration in plasma) (factor VII gene)
CCCCC/C=C\C/C=C\CCCCCCCCC1(CCCCCCCC/C=C\C/C=C\CCCCC)CN(C)C1 [Compound 1, 1-Methyl-3,3-bis[(9Z,12Z)-octadeca-9,12-dien-1-yl]azetidine]	113 nm	strongly suppressed
CCCCCC/C=C\CCCCCCCCC1(CCCCCCCC/C=C\CCCCCC)CN(C)C1 [Compound 6, 3,3-Bis[(Z)-hexadec-9-en-1-yl]-1-methylazetidine]	123 nm	–
CCCCCCCC/C=C\CCCCCCCCC1(CCCCCCCC/C=C\CCCCCCCC)CN(C)C1 [Compound 5, 1-Methyl-3,3-bis[(Z)-octadec-9-en-1-yl]azetidine]	115 nm	–

The next lines start with results.

Particle size of obtained preparation (nm) [1]	Compound	expression of the factor VII gene (factor VII protein concentration in plasma) (factor VII gene)
116 nm	CCCCC/C=C\C/C=C\CCCCCCCCC1(CCCCCCCC/C=C\C/C=C\CCCCC)CN(CCC)C1 [Compound 2, 3,3-Bis[(9Z,12Z)-octadeca-9,12-dien-1-yl]-1-propylazetidine]	strongly suppressed
127 nm	CCCCC/C=C\C/C=C\CCCCCCCCC1(CCCCCCCC/C=C\C/C=C\CCCCC)CN(C(=O)OCCCN(C)C)C1 [Compound 4, 3-(Dimethylamino)propyl 3,3-bis[(9Z,12Z)-octadeca-9,12-dien-1-yl]azetidine-1-carboxylate]	–
128 nm	CCCCC/C=C\C/C=C\CCCCCCCCCCC1(CCCCCCCCCC/C=C\C/C=C\CCCCC)CN(C)C1 [Compound 7, 3,3-Bis[(11Z,14Z)-icosa-11,14-dien-1-yl]-1-methylazetidine]	–
